Test results: US5541159A, “Calcitonin derivatives” (Sandoz Ltd., priority 1988, dated 1996)

Test system: ovulation
Assay: inhibition of ovulation in female rats (M. Marko and E. Fluckiger)
Assay type: in vivo
Conditions: s.c.
Experimental: The LHRH antagonists of the invention, in particular the compounds of formula XI inhibit luteinizing hormone secretion, e.g. as indicated by an inhibition of ovulation in animals. This test is effected according to M. Marko and E. Fluckiger, Experientia 30, […] (1974).
Adult female rats of the Ivanovas Wistar strain (Sprague Dawley, Iva: SDIV, 200-250 g) are kept under standard conditions: 14 h light (from 0.400 to 18.00 hours); 24° C.; 55-60% rel. humidity; food and water ad libitum. Animals with regular 4-day cycles are injected on proestrus day at 13.00 h with the compound to be tested, subcutaneously or by the oral route. The next day at 9:00 a.m. the rats are sacrified and ova counted on both Fallopian tubes with the aid of a dissecting microscope. Only when no eggs are found is ovulation considered to be inhibited. The mean number of eggs per ovulating rat in each treatment groups is also determined.

[N-Ac-DPhe(Cl)^1,2, DTrp^3,DAla^10 ]-LHRH
ED50 inhibition of ovulation: 0.08 mg/kg
